US8039623B2, “Inhibitors of serine proteases, particularly HCV NS3-NS4A protease” (Vertex Pharmaceuticals Incorporated, priority 2003, dated 2011)

Molecular target: HCV NS3-NS4A protease (tNS3 with KK4A) (Hepatitis C virus genotype 1a, UniProt P27958)
Test: HCV Enzyme Assay Protocol (HPLC microbore separation of 5AB substrate and products)
Format: biochemical
Details: 25 nM tNS3, 25 μM KK4A, 25 μM 5AB substrate, 20 min at 30° C.; read-out: Ki range
Description: HCV Enzyme Assay Protocol
HPLC Microbore method for separation of 5AB substrate and products
• NH2-Glu-Asp-Val-Val-(alpha)Abu-Cys-Ser-Met-Ser-Tyr-COOH
A stock solution of 20 mM 5AB (or concentration of your choice) was made in DMSO w/0.2M DTT. This was stored in aliquots at −20° C.
Buffer: 50 mM HEPES, pH 7.8; 20% glycerol; 100 mM NaCl
Total assay volume was 100 μL
The buffer, KK4A, DTT, and tNS3 were combined; distributed 78 μL each into wells of 96 well plate. This was incubated at 30° C. for ˜5-10 min.
2.5 μL of appropriate concentration of test compound was dissolved in DMSO (DMSO only for control) and added to each well. This was incubated at room temperature for 15 min.
Initiated reaction by addition of 20 μL of 250 μM 5 AB substrate (25 μM concentration is equivalent or slightly lower than the Km for 5 AB).
Incubated for 20 min at 30° C.
Terminated reaction by addition of 25 μL of 10% TFA
Transferred 120 μL aliquots to HPLC vials
Separated SMSY product from substrate and KK4A by the following method:
Microbore Separation Method:
Instrumentation: Agilent 1100
• Degasser G1322A • Binary pump G1312A • Autosampler G1313A • Column thermostated chamber G1316A • Diode array detector G1315A Column • Phenonex Jupiter; 5 micron C18; 300 angstroms; 150×2 mm; P/O • 00F-4053-B0 • Column thermostat: 40 C • Injection volume: 100 μL • Solvent A=HPLC grade water+0.1% TFA • Solvent B=HPLC grade acetonitrile+0.1% TFA
• Stop time: 17 min • Post-run time: 10 min.

Chain of HCV NS3-NS4A protease (tNS3 with KK4A) (P27958 1658-1711): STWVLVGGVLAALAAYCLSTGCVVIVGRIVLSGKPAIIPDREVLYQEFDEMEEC
Chain of HCV NS3-NS4A protease (tNS3 with KK4A) (P27958 1027-1208): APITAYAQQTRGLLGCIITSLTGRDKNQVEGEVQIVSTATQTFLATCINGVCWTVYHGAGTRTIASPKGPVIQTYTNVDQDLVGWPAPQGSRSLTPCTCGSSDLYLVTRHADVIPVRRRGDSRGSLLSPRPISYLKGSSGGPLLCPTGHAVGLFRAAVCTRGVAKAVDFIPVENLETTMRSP

**Q.** For `CCC[C@H](NC(=O)[C@@H]1CC2(CN1C(=O)[C@@H](NC(=O)[C@@H](NC(=O)c1cnccn1)C1CCCCC1)C(C)(C)C)SCCCS2)C(=O)NS(=O)(=O)c1ccccc1` [Compound 1], which Ki is on record?
**A.** > 5 µM

**Q.** `CCC[C@H](NC(=O)[C@@H]1C[C@@H](Oc2ccc(Cl)cn2)CN1C(=O)[C@@H](NC(=O)[C@@H](NC(=O)c1cnccn1)C1CCCCC1)C(C)(C)C)C(=O)NS(=O)(=O)c1ccccc1` [Compound 2] was tested. Which Ki did it give?
**A.** > 5 µM

**Q.** Which Ki does the source give for `CCC[C@H](NC(=O)[C@@H]1CC2(CN1C(=O)[C@@H](NC(=O)[C@@H](NC(=O)c1[nH]c(C)c(C)c1C(C)=O)C1CCCCC1)C(C)(C)C)SCCCS2)C(=O)NS(=O)(=O)c1ccccc1` [Compound 3] here?
**A.** 1 to 5 µM
